Activity data for 1 molecule are collected here from ChEMBL document CHEMBL2074470, “P-glycoprotein-mediated transport of itraconazole across the blood-brain barrier” (Antimicrob Agents Chemother, 1998).

SMILES strings stand for the structures.

The data set addresses ATP-dependent translocase ABCB1 (Mus musculus, UniProt P21447). The data set can be described thus: TP_TRANSPORTER: increase in brain concentration in mdr1a(-/-) mouse. The data set is classed as functional, organism-based. The following applies: in vivo.

ATP-dependent translocase ABCB1, sequence (P21447 whole entry): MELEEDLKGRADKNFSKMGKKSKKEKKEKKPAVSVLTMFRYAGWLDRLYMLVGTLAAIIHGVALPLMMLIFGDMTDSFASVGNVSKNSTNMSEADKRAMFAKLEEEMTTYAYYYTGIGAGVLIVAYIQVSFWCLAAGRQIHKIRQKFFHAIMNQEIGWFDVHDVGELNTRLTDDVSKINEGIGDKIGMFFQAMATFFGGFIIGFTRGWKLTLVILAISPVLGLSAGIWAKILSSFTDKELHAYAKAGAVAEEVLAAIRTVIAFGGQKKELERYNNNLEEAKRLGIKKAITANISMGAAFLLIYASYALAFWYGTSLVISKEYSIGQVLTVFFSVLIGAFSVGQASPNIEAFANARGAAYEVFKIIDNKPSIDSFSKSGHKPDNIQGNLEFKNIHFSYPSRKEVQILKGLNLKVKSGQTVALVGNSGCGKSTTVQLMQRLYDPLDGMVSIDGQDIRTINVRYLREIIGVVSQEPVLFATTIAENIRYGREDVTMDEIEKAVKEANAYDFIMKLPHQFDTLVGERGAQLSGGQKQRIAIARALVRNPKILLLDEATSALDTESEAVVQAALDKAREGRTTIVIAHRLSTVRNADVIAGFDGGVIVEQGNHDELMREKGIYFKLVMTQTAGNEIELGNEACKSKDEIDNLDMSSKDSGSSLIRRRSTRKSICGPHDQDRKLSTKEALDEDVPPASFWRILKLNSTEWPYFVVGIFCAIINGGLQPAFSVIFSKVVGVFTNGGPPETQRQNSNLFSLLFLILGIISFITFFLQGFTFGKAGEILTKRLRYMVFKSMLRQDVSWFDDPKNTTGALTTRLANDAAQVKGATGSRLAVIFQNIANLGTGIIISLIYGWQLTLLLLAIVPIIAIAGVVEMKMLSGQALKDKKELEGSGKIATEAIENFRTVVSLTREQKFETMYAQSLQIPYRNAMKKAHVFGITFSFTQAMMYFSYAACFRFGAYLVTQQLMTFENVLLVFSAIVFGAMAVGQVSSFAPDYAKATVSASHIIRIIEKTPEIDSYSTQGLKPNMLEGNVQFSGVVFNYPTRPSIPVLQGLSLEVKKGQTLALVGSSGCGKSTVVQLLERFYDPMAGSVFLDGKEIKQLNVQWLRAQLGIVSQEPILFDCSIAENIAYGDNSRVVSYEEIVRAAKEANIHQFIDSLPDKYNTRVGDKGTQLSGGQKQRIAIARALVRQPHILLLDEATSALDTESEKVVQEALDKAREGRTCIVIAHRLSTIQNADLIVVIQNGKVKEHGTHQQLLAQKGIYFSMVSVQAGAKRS

Regarding `CCC(C)n1ncn(-c2ccc(N3CCN(c4ccc(OCC5COC(Cn6cncn6)(c6ccc(Cl)cc6Cl)O5)cc4)CC3)cc2)c1=O` (stereo unspecified) [ITRACONAZOLE], the Activity result is “substrate [+]”.
